Data on 25 compounds can be found in PMC5863483, “Low HLA binding of diabetes-associated CD8+ T-cell epitopes is increased by post translational modifications” (BMC Immunology, 2018).

The IC50 is the point on the concentration scale where inhibition reaches its midpoint.

Where two headings read alike, the source gives them in different places. Where no end group is shown, it is not given here.

In one assay the target is HLA-A*03:01 (Homo sapiens, UniProt P04439). The experiment in a line: HLA-peptide competition binding assay, A*03:01.
Another assay has as its target HLA-B*35:01 (Homo sapiens, UniProt P01889, A329T/A93T/A95T/C349S/D201E/D98Y/E176V/E187L/E204Q/E69T/I218V/K202T/L119I/Q94N/R155S/R180L/S121R/S35A/S48A/T118I/V127L/V306I/V36M/Y140S/Y91F). The experiment in a line: HLA-peptide competition binding assay, B*35:01. The settings on record: read-out: IC50 nM, target assay B*35:01.
The next assay addresses HLA-B*07:02 (Homo sapiens, UniProt P01889). The experiment in a line: HLA-peptide competition binding assay, B*07:02. The following applies: read-out: IC50 nM, target assay B*07:02.
A further assay has as its target HLA-A*02:01 (Homo sapiens, UniProt P04439, D140Y/D185E/D98H/E176V/E277Q/G131W/G231S/I119V/I121R/I166T/I218V/L300P/L318F/N151K/N90K/P208A/P217A/Q86G/Q94H/R138H/R169H/T345S). As to the kind of experiment: HLA-peptide competition binding assay, A*02:01.
In the next assay the target is HLA-A*24:02 (Homo sapiens, UniProt P04439, D101N/D140Y/D185E/E176V/E190D/F33S/G103R/G107R/I119L/I121M/I306V/K335N/L105A/L180Q/L300P/N151K/N90K/Q86E/Q94H/R106L/R138H/R89G/T104I/T345S/V100E/W191G/Y123F). As to the kind of experiment: HLA-peptide competition binding assay, A*24:02. The settings on record: read-out: IC50 nM, target assay A*24:02.
Another assay addresses HLA-A*01:01 (Homo sapiens, UniProt P04439, A114D/A174V/A182V/D101N/D185E/E176A/E190D/L180R/Q94H/R68K/S129P/T187R/V100A/V91M/W191G). As to the kind of experiment: HLA-peptide competition binding assay, A*01:01. The following applies: read-out: IC50 nM, target assay A*01:01.
A further assay has as its target HLA-A*11:01 (Homo sapiens, UniProt P04439, A114D/D185E/E176A/F33Y/L180Q/S129P/T187R). As to the kind of experiment: HLA-peptide competition binding assay, A*11:01. The settings on record: read-out: IC50 nM, target assay A*11:01.
For a further assay, the target named is HLA-B*08:01 (Homo sapiens, UniProt P01889, A93T/A95T/D138N/E176V/E187T/K202T/Q94N/R180D/S35A/V36M/Y33D/Y91F). As to the kind of experiment: biochemical. How it is done:
The 138 peptides were tested for their capacity to bind their respective HLA class I restricting allele(s) in classical competition assays based on the inhibition of the binding of high affinity radiolabeled ligands to purified major histocompatibility (MHC) molecules, as described in the Methods. In instances where the precise restriction was not available, binding to the most common representative subtype from the same allele family was assayed (e.g., A*02:01 for A02; B*07:02 for B7; A*03:01 for A03, etc.). For epitopes reported to be restricted by multiple alleles, each restriction is shown separately.
Peptide-MHC affinities were measured using classical competition assays based on the inhibition of binding of a high affinity radiolabeled ligand to purified HLA class I molecules, as previously described. Briefly, 0.1–1 nM of radiolabeled peptide is co-incubated at room temperature with purified MHC in the presence of a cocktail of protease inhibitors. Following a two-day incubation, MHC bound radioactivity is determined by capturing MHC/peptide complexes on W6/32 (anti-HLA class I) mAb coated Lumitrac 600 plates (Greiner Bio-one, Frickenhausen, Germany), and bound cpm measured using the TopCount (Packard Instrument Co., Meriden, CT) microscintillation counter. […] Under the conditions utilized, where [label] < [MHC] and IC50 ≥ [MHC], measured IC50 values are reasonable approximations of true Kd. Each competitor peptide is tested at six different concentrations covering a 100,000-fold range, and in three or more independent experiments. As a positive control, the unlabeled version of the radiolabeled probe is also tested in each experiment.

The target of the next assay is HLA-B*51:01 (Homo sapiens, UniProt P01889, A329T/A93T/A95T/C349S/D138N/D201E/D98Y/E187L/E204Q/E69T/G107R/I218V/K202T/L105A/L119W/N104I/Q94N/R106L/R155S/R180L/S101N/S121T/S35A/S48A/V306I/V36M/Y195H/Y91F). As to the kind of experiment: HLA-peptide competition binding assay, B*51:01. The settings on record: read-out: IC50 nM, target assay B*51:01.
The target of a further assay is HLA-B*18:01 (Homo sapiens, UniProt P01889, A329T/A93T/A95T/C349S/D201E/D54G/D98Y/E176V/E187T/E204Q/E69T/K202T/Q94N/R155S/R180L/S121R/V306I/Y140S/Y195H/Y33H/Y91S). The experiment in a line: HLA-peptide competition binding assay, B*18:01. The following applies: read-out: IC50 nM, target assay B*18:01.
Setting [1] is: read-out: IC50 nM, target assay A*03:01.
The mark [2] stands for this setting: read-out: IC50 nM, target assay A*02:01.
Where [3] appears, read: read-out: A*02:01 binding (IC50 nM) WT.
Setting [4] is: unmodified (WT) insulin peptide, competition binding assay, a dash indicates IC50 >40,000 nM, read-out: A*02:01 binding (IC50 nM) WT.

For the compound PLLALLALWG, the IC50 on HLA-A*03:01 (setting [1]) is over 40000 nM.
Take TSEHSHFSL: the concentration for half-maximal inhibition (IC50) on HLA-B*35:01 is over 40000 nM.
Regarding APVIKARMM, the IC50 on HLA-B*07:02 turned out to be 18200 nM.
With RLLPLLALL [reference compound], the IC50 turned out to be 145 nM at HLA-A*02:01 (setting [2]) and 10200 nM on HLA-A*24:02.
Consider LVCGERGFFY, for which the IC50 was 27400 nM at HLA-A*03:01 (setting [1]), 23200 nM at HLA-A*02:01 (setting [3]), over 40000 nM on HLA-A*01:01 and 27200 nM on HLA-A*11:01.
Turning to FYTPKTRRE [reference compound], the IC50 at HLA-A*02:01 (setting [4]) was over 40000 nM; against HLA-B*08:01 it was 13 µM.
RFKMFPEVK: the 50% inhibitory concentration (IC50) at HLA-A*11:01 amounted to 18300 nM.
For LPLLALLAL [LPLLALLAL], the IC50 at HLA-B*07:02 is 610 nM; at HLA-B*35:01, 12300 nM; at HLA-B*51:01 it was 1160 nM.
With “WMRLLPLLAL [WMRLLPLLAL, reference compound]”, the IC50 on HLA-B*07:02 is 2360 nM; on HLA-A*02:01, 654 nM.
For ALWMRLLPL [reference compound], the concentration for half-maximal inhibition (IC50) on HLA-A*02:01 (setting [2]) worked out at 218 nM; against HLA-B*08:01 it was 0.107 µM.
As for LWMRLLPLL [reference compound], the IC50 at HLA-A*02:01 (setting [3]) is 266 nM; on HLA-A*24:02, 545 nM.
As for ALWMRLLPLL, the 50% inhibitory concentration (IC50) at HLA-A*02:01 (setting [2]) came to 190 nM; on HLA-A*24:02, 6180 nM; against HLA-B*08:01, 0.033 µM.
For the compound `CC(C)C[C@H](NC(=O)[C@H](Cc1ccc(O)cc1)NC(=O)[C@@H](N)CC(C)C)C(=O)N[C@H](C(=O)N[C@@H](CS)C(=O)NCC(=O)N[C@@H](CCC(=O)O)C(=O)N[C@@H](CCCNC(=N)N)C(=O)NCC(=O)N[C@@H](Cc1ccccc1)C(=O)O)C(C)C` [reference compound], the IC50 at HLA-A*02:01 (setting [3]) was 13400 nM; at HLA-A*24:02 it was 5250 nM.
Take GSHLVEALY [reference compound]: the half-inhibitory concentration (IC50) at HLA-A*02:01 (setting [3]) was 3960 nM; at HLA-A*01:01, 30300 nM.
Take ALWGPDPAAAF: the IC50 was 15100 nM on HLA-A*24:02 and over 40000 nM on HLA-A*01:01.
Regarding PLALEGSLQK, at HLA-A*03:01, the half-inhibitory concentration (IC50) was over 40000 nM.
Turning to `CC(C)C[C@H](NC(=O)[C@H](CCC(N)=O)NC(=O)[C@H](CC(N)=O)NC(=O)[C@H](Cc1ccccc1)NC(=O)[C@H](Cc1ccc(O)cc1)NC(=O)[C@H](CCCNC(=N)N)NC(=O)[C@@H]1CCCN1C(=O)[C@@H](N)Cc1c[nH]cn1)C(=O)N[C@@H](CO)C(=O)N[C@H](C(=O)O)[C@@H](C)O`, on HLA-B*07:02, the IC50 came out at 1250 nM.
As for SLQPLALEG [reference compound], the half-maximal inhibitory concentration (IC50) on HLA-A*03:01 (setting [1]) and at HLA-A*02:01 (setting [2]) was over 40000 nM each time.
Consider ALYLVCGER, for which the half-inhibitory concentration (IC50) on HLA-A*03:01 was 2790 nM; on HLA-A*02:01, 1790 nM; at HLA-A*11:01 it was 28300 nM.
In the case of ERGFFYTPK [reference compound], the concentration for half-maximal inhibition (IC50) at HLA-A*03:01 (setting [1]) and at HLA-A*02:01 (setting [4]) was over 40000 nM in each case.
As to GERGFFYT, the results for the half-inhibitory concentration (IC50) against HLA-B*08:01 and on HLA-A*01:01 were 1.38 µM and over 40000 nM, respectively.
SASVQRADTSL: the IC50 at HLA-B*07:02 was determined as 11 nM.
Turning to MFPEVKEKG, the IC50 on HLA-A*11:01 is over 40000 nM.
Turning to IPSDLERRIL, the half-inhibitory concentration (IC50) at HLA-B*07:02 stood at 3860 nM.
As to VCGERGFFYT, the IC50 was over 40000 nM on HLA-A*02:01 (setting [2]); over 40000 nM on HLA-A*02:01 (setting [4]); over 40 µM at HLA-B*08:01; over 40000 nM at HLA-A*01:01; 626 nM at HLA-B*18:01.
